According to patent US20170209547A1, “N[…] USE IN […] AND ANXIETY IN PETS” (DOMES PHARMA, priority 2016, published 2017):

System: male Wistar Han rats
Assay: EDC test (anxiety test with electric probe burying), global anxiety score
Type: in vivo, rat
Conditions: Diazepam 3 mg/kg p.o. 60 min before the test
Procedure: Forty male Wistar Han rats (Crl:WI(Han), Charles River Laboratories, L'Arbresle, France), weighing from 250 to 275 g were used. Upon receipt, the rats were marked and split into groups of 3 or 4 animals in polycarbonate cages (Eurostandard type IIIH, 425×266×185 mm, Tecniplast, Lyon, France). The animals were housed in a climate-controlled animal house, at a temperature of […] and relative humidity of 50±20%. The rats had food (Teklad Global 2016, Harlan, Ganat, France) and drink ad libitum and were held in a day-night cycle inverted by 12 hours (day from 20:00 to 08:00). […]
The experimental device was placed in a room lit with a low intensity red light. A video camera connected to a digital recorder saved all behavioral sequences so that behavior of interest could be measured later. […]
The electric probe was inserted into the cage before the start of the test. […] After the electric shock, the rat's behavior was recorded for 5 min. […]
The following behaviors were quantified from video recordings made during the tests: • duration probe was buried; • number of stretches in the direction of the probe; • number of approaches to the probe; • number of flights from the probe. […]

CN1C(=O)CN=C(c2ccccc2)c2cc(Cl)ccc21 [Diazepam]
Global anxiety score vs. vehicle group (Mann-Whitney test): significantly lower | Global anxiety score, Median (n = 9, Vehicle median 111): 41
